Several values for one entry are separate records, joined by “and”; a condition that tells them apart may be missing. Identical values can stand only once.
Tested on: 429239-143-T-J1-PDC complex spheroid viability
Assay: Anticancer human tumor 429239-143-T-J1-PDC patient-derived small cell lung carcinoma cell line growth inhibition [POLQ]
Settings: for viability, T/C: stronger effect = lower value
Summary of the method: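 Three-cell-type spheroids modelling solid tumor plus stroma served as the readout system; POL inhibitors were tested individually and in combination, concentration ranges set by clinical Cmax where known.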

[1] = curve of first compound, second compound 0.0316 µM
[2] = curve of first compound, second compound 0.1 µM
[3] = curve of first compound, second compound 0.316 µM
[4] = curve of first compound, second compound 1 µM
[5] = curve of first compound, second compound 3.16 µM
[6] = curve of first compound, second compound 10 µM
[7] = second compound 0.0316 µM, first compound 0.0316 µM
[8] = second compound 0.0316 µM, first compound 0.1 µM
[9] = second compound 0.0316 µM, first compound 0.316 µM
[10] = second compound 0.0316 µM, first compound 1 µM
[11] = second compound 0.0316 µM, first compound 3.16 µM
[12] = second compound 0.0316 µM, first compound 10 µM
[13] = second compound 0.1 µM, first compound 0.0316 µM
[14] = second compound 0.1 µM, first compound 0.1 µM
[15] = second compound 0.1 µM, first compound 0.316 µM
[16] = second compound 0.1 µM, first compound 1 µM
[17] = second compound 0.1 µM, first compound 3.16 µM
[18] = second compound 0.1 µM, first compound 10 µM
[19] = second compound 0.316 µM, first compound 0.0316 µM
[20] = second compound 0.316 µM, first compound 0.1 µM
[21] = second compound 0.316 µM, first compound 0.316 µM
[22] = second compound 0.316 µM, first compound 1 µM
[23] = second compound 0.316 µM, first compound 3.16 µM
[24] = second compound 0.316 µM, first compound 10 µM
[25] = second compound 1 µM, first compound 0.0316 µM
[26] = second compound 1 µM, first compound 0.1 µM
[27] = second compound 1 µM, first compound 0.316 µM
[28] = second compound 1 µM, first compound 1 µM
[29] = second compound 1 µM, first compound 3.16 µM
[30] = second compound 1 µM, first compound 10 µM
[31] = second compound 3.16 µM, first compound 0.0316 µM
[32] = second compound 3.16 µM, first compound 0.1 µM
[33] = second compound 3.16 µM, first compound 0.316 µM
[34] = second compound 3.16 µM, first compound 1 µM
[35] = second compound 3.16 µM, first compound 3.16 µM
[36] = second compound 3.16 µM, first compound 10 µM
[37] = second compound 10 µM, first compound 0.0316 µM
[38] = second compound 10 µM, first compound 0.1 µM
[39] = second compound 10 µM, first compound 0.316 µM
[40] = second compound 10 µM, first compound 1 µM
[41] = second compound 10 µM, first compound 3.16 µM
[42] = second compound 10 µM, first compound 10 µM
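Further: luminescence signal used as surrogate measure of viable cells; spheroids exposed to compounds for seven days before readout.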
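Wherever viability, T/C is given: 100% = DMSO vehicle control viability as luminescence relative to vehicle.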

SMILES: CC1COCCN1c1cc(C2(O)CC3CCC(C2)O3)c2cnn(-c3ccn[nH]3)c2n1 (stereo unspecified) + Nc1ccc(C#CCN(C(=O)Cc2ncc(C(F)(F)F)cc2C(F)(F)F)c2ccc(F)cc2)nn1
- IC50 [1]: 273 nM
- IC50 [2]: 251 nM
- IC50 [3]: 269 nM
- IC50 [4]: 263 nM
- IC50 [5]: 232 nM
- IC50 [6]: 187 nM
- viability, T/C [7]: 84.1%
- viability, T/C [8]: 72%
- viability, T/C [9]: 48.2%
- viability, T/C [10]: 7.65%
- viability, T/C [11]: 3.72%
- viability, T/C [12]: 2.1%
- viability, T/C [13]: 83.8%
- viability, T/C [14]: 70.5%
- viability, T/C [15]: 46.3%
- viability, T/C [16]: 7.55%
- viability, T/C [17]: 3.33%
- viability, T/C [18]: 2.36%
- viability, T/C [19]: 83.9%
- viability, T/C [20]: 71.3%
- viability, T/C [21]: 47.9%
- viability, T/C [22]: 7.06%
- viability, T/C [23]: 3.37%
- viability, T/C [24]: 2.33%
- viability, T/C [25]: 78.9%
- viability, T/C [26]: 69.5%
- viability, T/C [27]: 46.8%
- viability, T/C [28]: 6.97%
- viability, T/C [29]: 3.6%
- viability, T/C [30]: 2.11%
- viability, T/C [31]: 81.1%
- viability, T/C [32]: 70.4%
- viability, T/C [33]: 43.1%
- viability, T/C [34]: 7.77%
- viability, T/C [35]: 3.26%
- viability, T/C [36]: 2.52%
- viability, T/C [37]: 83.4%
- viability, T/C [38]: 66.9%
- viability, T/C [39]: 36.4%
- viability, T/C [40]: 6.28%
- viability, T/C [41]: 3.88%
- viability, T/C [42]: 2.51%

SMILES: CC(C)n1c(=O)n(C)c2cnc3cc(F)c(-c4ccc(OCCCN5CCCCC5)nc4)cc3c21
- viability, T/C (compound 0.0316 µM): 99.4% and 102% and 100%
- viability, T/C (compound 0.1 µM): 94.7% and 101% (2×)
- viability, T/C (compound 0.316 µM): 102% and 94.4% and 86.6%
- viability, T/C (compound 1 µM): 89.1% and 102% and 95.7%
- viability, T/C (compound 3.16 µM): 91.2% and 99.8% and 90.1%
- viability, T/C (compound 10 µM): 60.3% and 99.5% and 74.6%
- IC50 (curve of compound): > 10000 nM

SMILES: CC1COCCN1c1cc(C2(O)CC3CCC(C2)O3)c2cnn(-c3ccn[nH]3)c2n1 (stereo unspecified) + COC1C(OC(N)=O)C(O)C(Oc2ccc3c(O)c(NC(=O)c4ccc(O)c(CC=C(C)C)c4)c(=O)oc3c2C)OC1(C)C
- IC50 [1]: 48.7 nM
- IC50 [2]: 63.6 nM
- IC50 [3]: 49 nM
- IC50 [4]: 65.9 nM
- IC50 [5]: 57.8 nM
- IC50 [6]: 43.2 nM
- viability, T/C [7]: 60.6%
- viability, T/C [8]: 32.4%
- viability, T/C [9]: 15.4%
- viability, T/C [10]: 9.3%
- viability, T/C [11]: 7.39%
- viability, T/C [12]: 6.59%
- viability, T/C [13]: 69.8%
- viability, T/C [14]: 37.4%
- viability, T/C [15]: 16%
- viability, T/C [16]: 9.73%
- viability, T/C [17]: 7.67%
- viability, T/C [18]: 5.38%
- viability, T/C [19]: 62.4%
- viability, T/C [20]: 28.4%
- viability, T/C [21]: 18.1%
- viability, T/C [22]: 9.94%
- viability, T/C [23]: 6.92%
- viability, T/C [24]: 5.8%
- viability, T/C [25]: 67.5%
- viability, T/C [26]: 39.9%
- viability, T/C [27]: 19.2%
- viability, T/C [28]: 7.99%
- viability, T/C [29]: 7.48%
- viability, T/C [30]: 5.25%
- viability, T/C [31]: 69.7%
- viability, T/C [32]: 31.6%
- viability, T/C [33]: 17.1%
- viability, T/C [34]: 8.72%
- viability, T/C [35]: 6.53%
- viability, T/C [36]: 5.31%
- viability, T/C [37]: 56.7%
- viability, T/C [38]: 32%
- viability, T/C [39]: 18.1%
- viability, T/C [40]: 8.41%
- viability, T/C [41]: 9.41%
- viability, T/C [42]: 5.38%
